Results reported in patent publication US20260234124A1, “Substituted Pyrazolyl-Pyridinyl Compounds as Ligand Directed Degraders of IRAK3” (Celgene Corporation, priority 2022, published 2026).

Columns and labels:
IRAK3 [1] = target: T1, IRAK3 (Homo sapiens, UniProt Q9Y616); experiment: IRAK3 biochemical binding assay (LanthaScreen Eu Kinase Binding, TR-FRET); details: 10 nM tracer, 10 nM IRAK3, 1 hour at room temperature
T1 sequence (Q9Y616 1-596): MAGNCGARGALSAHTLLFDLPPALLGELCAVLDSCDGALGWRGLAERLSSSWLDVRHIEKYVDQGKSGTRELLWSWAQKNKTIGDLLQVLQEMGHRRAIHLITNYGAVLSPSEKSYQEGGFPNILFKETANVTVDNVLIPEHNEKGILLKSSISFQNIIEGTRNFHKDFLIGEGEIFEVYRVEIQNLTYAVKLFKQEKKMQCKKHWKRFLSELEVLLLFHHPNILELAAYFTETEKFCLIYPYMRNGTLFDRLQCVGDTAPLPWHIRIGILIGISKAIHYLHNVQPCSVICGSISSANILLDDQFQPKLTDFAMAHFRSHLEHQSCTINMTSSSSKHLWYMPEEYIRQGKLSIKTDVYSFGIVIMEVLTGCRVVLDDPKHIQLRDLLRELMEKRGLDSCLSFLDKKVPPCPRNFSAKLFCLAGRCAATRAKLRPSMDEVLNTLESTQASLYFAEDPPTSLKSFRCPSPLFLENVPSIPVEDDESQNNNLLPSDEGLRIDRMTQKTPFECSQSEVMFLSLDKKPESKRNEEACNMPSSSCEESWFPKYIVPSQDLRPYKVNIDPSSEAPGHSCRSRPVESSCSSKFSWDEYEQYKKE
Method: Example B3. IRAK3 Biochemical Binding Assay
The LanthaScreen® Eu Kinase Binding assay was performed as described by the vendor (ThermoFisher Scientific Waltham, MA). Briefly, 100× solutions of compound were prepared in DMSO via serial dilution of the 10 mM stock solution in a 384-well reagent plate using 3-fold intervals to achieve final concentrations. 1 μL of the compound dilution series were added to the corresponding wells of a 384-well reagent plate containing 32.3 μL of 1× buffer (50 mM HEPES pH 7.4, […], 1 mM EGTA, 0.01% Brij-35). 5 μL of the buffer diluted compounds were transferred to the corresponding wells of a 384-well assay plate. 5 μL of 3× tracer was transferred to each well of the assay plate for a final tracer concentration of 10 nM. Finally, 5 μL of the 3× Eu-Anti-GST and IRAK3 mix was transferred to each well for a final concentration of 2 nM and 10 nM, respectively. Reactions were allowed to incubate for 1 hour at room temperature. TR-FRET signal of the interaction ([…]/λem 665/λem 615) was read at room temperature with a delay time of 100 μs and an integration time of 200 μs using an Envision plate reader. Background corrected emission signal ratios at each compound concentration were used to calculate percentage of inhibition (% o Inhibition). Plots of % Inhibition versus inhibitor concentrations were fit according to a dose-response equation (Eq. 1) to generate IC50 and Hill slope values using Dotmatics software (Dotmatics, Bishops Storford, Hertfordshire, England).
(§1) Using these assays, IC50, Dmax, EC50, and DC50 values of the following compounds were determined. Dmax is defined as the maximum percent degradation achieved and DC50 is the concentration at which 50% degradation is achieved.

IRAK3 [2] = target: T1, IRAK3; experiment: IRAK endogenous HTRF degradation assay (Total-IRAK3 HTRF kit); type: cell-based; parameters: IRAK Endogenous HTRF Degradation Assay; endogenous in cells; details: endogenous IRAK3, overnight incubation; % Dmax = 100 − Ymin
Method: Example B2. IRAK Endogenous HTRF Degradation Assay
Cells (~50k) were plated in Cisbio 96-well low volume white plates (Cisbio: cat #66PL96005). Compounds were dissolved in DMSO and a 3-fold serial dilution was performed using a TECAN D300E. Cells were incubated with the compound overnight. Total-IRAK3 HTRF kit from Cisbio was used for degradation analysis (Cisbio: 63ADK101PEH). Cryptate and D2 antibodies were diluted in Detection buffer as per manufacturers recommendation. Then 2 μL of each solution was added to 16 μL lysate. Buffer control (lysis buffer detection buffer), Cryptate control (lysis buffer+cryptate antibody+detection buffer), and Negative control (lysis buffer+cryptate antibody+D2 antibody) were made as per manufacturers recommendation. Post incubation with antibodies the HTRF signal was measured using a Perkin Elmer Envision reader and the HTRF signal was calculated using formula: (Emission at 665 nm/Emission at 615 nm)*10,000. All HTRF values were normalized to the average value of DMSO. The average value of the DMSO control wells were set to equal 100% of the relative IRAK3 protein levels. Normalized luminescence values were plotted on a graph as a function of compound concentration. Compound concentration was plotted on the x-axis and the corresponding normalized IRAK3 protein levels on the y-axis. The EC50 value (the half-maximum effective concentration) of a compound for the degradation of the IRAK3 was calculated using a four-parameter logistic model (sigmoidal dose-response model) (FIT=(A+{(B−A)/1+[(C/x)D]})) where C is the inflection point (EC50), D is the […], and A and B are the low and high limits of the fit, respectively). The Ymin was calculated by determining the lowest percentage of target protein remaining following compound treatment. Dmax was calculated from Ymin (% Dmax=100−Ymin).
as §1

IC50 (IRAK3 [1]) [nM]	Dmax (IRAK3 [2]) [%]	Structure (SMILES)
111	41	Cc1ncsc1-c1ccc(CNC(=O)[C@@H]2C[C@@H](O)CN2C(=O)[C@@H](NC(=O)CCCN2CCC(n3cc(-c4cnc(N)c(O[C@H](C)c5c(Cl)ccc(F)c5Cl)c4)cn3)CC2)C(C)(C)C)cc1 [Compound 1, (2S,4R)-1-((S)-2-(4-(4-(4-(6-amino-5-((R)-1-(2,6-dichloro-3-fluorophenyl)ethoxy)pyridin-3-yl)-1H-pyrazol-1-yl)piperidin-1-yl)butanamido)-3,3-dimethylbutanoyl)-4-hydroxy-N-(4-(4-methylthiazol-5-yl)benzyl)pyrrolidine-2-carboxamide]
45	23	C[C@@H](Oc1cc(-c2cnn(C3CCN(CCOCCNC(=O)COc4cccc5c4C(=O)N(C4CCC(=O)NC4=O)C5=O)CC3)c2)cnc1N)c1c(Cl)ccc(F)c1Cl (stereo partly drawn) [Compound 9, N-(2-(2-(4-(4-(6-amino-5-((R)-1-(2,6-dichloro-3-fluorophenyl)ethoxy)pyridin-3-yl)-1H-pyrazol-1-yl)piperidin-1-yl)ethoxy)ethyl)-2-((2-(2,6-dioxopiperidin-3-yl)-1,3-dioxoisoindolin-4-yl)oxy)acetamide]
139	35	Cc1ncsc1-c1ccc(CNC(=O)[C@@H]2C[C@@H](O)CN2C(=O)[C@@H](NC(=O)COCCOCCN2CCC(n3cc(-c4cnc(N)c(O[C@H](C)c5c(Cl)ccc(F)c5Cl)c4)cn3)CC2)C(C)(C)C)cc1 [Compound 2, (2S,4R)-1-((S)-2-(2-(2-(2-(4-(4-(6-amino-5-((R)-1-(2,6-dichloro-3-fluorophenyl)ethoxy)pyridin-3-yl)-1H-pyrazol-1-yl)piperidin-1-yl)ethoxy)ethoxy)acetamido)-3,3-dimethylbutanoyl)-4-hydroxy-N-(4-(4-methylthiazol-5-yl)benzyl)pyrrolidine-2-carboxamide]
2	68	C[C@@H](Oc1cc(-c2cnn(C3CCN(C4CCC5(CC4)CCN(C(=O)c4cccc6c4CN(C4CCC(=O)NC4=O)C6=O)CC5)CC3)c2)cnc1N)c1c(Cl)ccc(F)c1Cl (stereo partly drawn) [Compound 21, 3-(4-(9-(4-(4-(6-amino-5-((R)-1-(2,6-dichloro-3-fluorophenyl)ethoxy)pyridin-3-yl)-1H-pyrazol-1-yl)piperidin-1-yl)-3-azaspiro[5.5]undecane-3-carbonyl)-1-oxoisoindolin-2-yl)piperidine-2,6-dione]
12	73	C[C@@H](Oc1cc(-c2cnn(C3CCN(C4CCC5(CC4)CCN(C(=O)c4ccc6c(c4)C(=O)N(C4CCC(=O)NC4=O)C6=O)CC5)CC3)c2)cnc1N)c1c(Cl)ccc(F)c1Cl (stereo partly drawn) [Compound 18, 5-(9-(4-(4-(6-amino-5-((R)-1-(2,6-dichloro-3-fluorophenyl)ethoxy)pyridin-3-yl)-1H-pyrazol-1-yl)piperidin-1-yl)-3-azaspiro[5.5]undecane-3-carbonyl)-2-(2,6-dioxopiperidin-3-yl)isoindoline-1,3-dione]
16	65	C[C@@H](Oc1cc(-c2cnn(C3CCN(CCNC(=O)COc4ccc5c(c4)C(=O)N(C4CCC(=O)NC4=O)C5=O)CC3)c2)cnc1N)c1c(Cl)ccc(F)c1Cl (stereo partly drawn) [Compound 13, N-(2-(4-(4-(6-amino-5-((R)-1-(2,6-dichloro-3-fluorophenyl)ethoxy)pyridin-3-yl)-1H-pyrazol-1-yl)piperidin-1-yl)ethyl)-2-((2-(2,6-dioxopiperidin-3-yl)-1,3-dioxoisoindolin-5-yl)oxy)acetamide]
108	56	Cc1ncsc1-c1ccc(CNC(=O)[C@@H]2C[C@@H](O)CN2C(=O)[C@@H](NC(=O)COCCOCCOCCOCCOCCOCCN2CCC(n3cc(-c4cnc(N)c(O[C@H](C)c5c(Cl)ccc(F)c5Cl)c4)cn3)CC2)C(C)(C)C)cc1 [Compound 6, (2S,4R)-1-((S)-23-(4-(4-(6-amino-5-((R)-1-(2,6-dichloro-3-fluorophenyl)ethoxy)pyridin-3-yl)-1H-pyrazol-1-yl)piperidin-1-yl)-2-(tert-butyl)-4-oxo-6,9,12,15,18,21-hexaoxa-3-azatricosanoyl)-4-hydroxy-N-(4-(4-methylthiazol-5-yl)benzyl)pyrrolidine-2-carboxamide]
4	42	C[C@@H](Oc1cc(-c2cnn(C3CCN(C4CCC5(CC4)CCN(C(=O)c4ccc6c(c4)C(=O)N(C4CCC(=O)NC4=O)C6)CC5)CC3)c2)cnc1N)c1c(Cl)ccc(F)c1Cl (stereo partly drawn) [Compound 19, 3-(6-(9-(4-(4-(6-amino-5-((R)-1-(2,6-dichloro-3-fluorophenyl)ethoxy)pyridin-3-yl)-1H-pyrazol-1-yl)piperidin-1-yl)-3-azaspiro[5.5]undecane-3-carbonyl)-1-oxoisoindolin-2-yl)piperidine-2,6-dione]
64	20	C[C@@H](Oc1cc(-c2cnn(C3CCN(CCOCCOCCNC(=O)COc4ccc5c(c4)C(=O)N(C4CCC(=O)NC4=O)C5=O)CC3)c2)cnc1N)c1c(Cl)ccc(F)c1Cl (stereo partly drawn) [Compound 15, N-(2-(2-(2-(4-(4-(6-amino-5-((R)-1-(2,6-dichloro-3-fluorophenyl)ethoxy)pyridin-3-yl)-1H-pyrazol-1-yl)piperidin-1-yl)ethoxy)ethoxy)ethyl)-2-((2-(2,6-dioxopiperidin-3-yl)-1,3-dioxoisoindolin-5-yl)oxy)acetamide]
120	21	Cc1ncsc1-c1ccc(CNC(=O)[C@@H]2C[C@@H](O)CN2C(=O)[C@@H](NC(=O)COCCOCCOCCOCCN2CCC(n3cc(-c4cnc(N)c(O[C@H](C)c5c(Cl)ccc(F)c5Cl)c4)cn3)CC2)C(C)(C)C)cc1 [Compound 4, (2S,4R)-1-((S)-17-(4-(4-(6-amino-5-((R)-1-(2,6-dichloro-3-fluorophenyl)ethoxy)pyridin-3-yl)-1H-pyrazol-1-yl)piperidin-1-yl)-2-(tert-butyl)-4-oxo-6,9,12,15-tetraoxa-3-azaheptadecanoyl)-4-hydroxy-N-(4-(4-methylthiazol-5-yl)benzyl)pyrrolidine-2-carboxamide]
